Drawing on patent publication US11724997B2, “Compounds and compositions for treating conditions associated with APJ receptor activity” (Annapurna Bio, Inc., priority 2018, dated 2023), this text covers EC50 for 28 compounds.

In the test the target is T1, APJ Receptor (Homo sapiens, UniProt P35414).
T1 sequence (P35414 1-380): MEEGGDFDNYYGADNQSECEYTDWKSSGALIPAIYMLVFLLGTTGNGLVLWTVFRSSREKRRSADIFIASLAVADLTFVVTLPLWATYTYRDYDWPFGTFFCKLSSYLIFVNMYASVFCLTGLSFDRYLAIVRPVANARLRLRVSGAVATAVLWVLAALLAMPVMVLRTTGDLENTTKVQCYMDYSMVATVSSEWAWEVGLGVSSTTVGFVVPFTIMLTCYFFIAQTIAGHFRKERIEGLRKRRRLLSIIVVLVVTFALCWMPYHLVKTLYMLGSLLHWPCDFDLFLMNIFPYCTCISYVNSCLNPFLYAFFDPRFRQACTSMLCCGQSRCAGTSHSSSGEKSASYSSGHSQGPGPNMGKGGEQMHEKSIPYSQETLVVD
Kind of test: APJ cAMP assay: inhibition of forskolin-stimulated cAMP, enzyme fragment complementation, in CHO-K1 cells stably expressing the APJ Receptor. It counts as cell-based. The note with it: CHO-K1 cell line (DiscoverX) stably expressing APJ Receptor; EC80 forskolin; 30 minutes at 37° C.; read-out: APJ cAMP EC50 Potency range. An excerpt: Activation of APJ receptor is known to inhibit forskolin-stimulated cyclic AMP (cAMP) production in cells in a pertussis toxin-sensitive manner which indicates primary coupling to the GαI subunit of the G protein heterotrimeric complex. In addition to signaling through G protein and inhibition of cAMP, APJ receptor activation also results in β-arrestin recruitment, receptor internalization and activation of extracellular-regulated kinases (ERKs).
In order to optimize functional activity directed toward Gi coupling we utilized a CHO-K1 cell line developed by DiscoverX stably expressing the APJ Receptor. Cells expressing APJR receptor were plated in a 384-well microtiter plates and incubated overnight at 37° C. with 5% CO2 to allow the cells to attach and grow. Media was then aspirated from the cells and replaced with 15 uL 2:1 Hanks Balanced Salt Solution (HBSS)/10 mM Hepes. cAMP XS+ Ab reagent. Five microliters (5 uL) of previously generated compound sample stocks at 4× final concentration in assay buffer containing 4×EC80 forskolin were then added to the cells and allowed to incubate at 37° C. for 30 minutes.
After incubation the assay signal was generated using a technology termed enzyme fragment complementation (EFC). In EFC the enzyme B-galactosidase is split into two complementary portions (EA and ED). The fragment ED is fused to cAMP and in the assay format competes with endogenous cAMP for binding to a cAMP specific antibody. Activated B-Gal is formed when exogenous EA fragment binds to free ED-cAMP (not bound to cAMP specific antibody). Activated enzyme levels are detected through conversion of B-gal chemiluminescent substrate which generates a detectable luminescence signal and read on standard microtiter plate.
The methodology for detection of cAMP using EFC requires incubation with 20 uL of cAMP XS+ ED/CL lysis cocktail for one hour followed by incubation with 20 uL cAMP XS+ EA reagent for three hours at room temperature. Microplates were read following signal generation with a PerkinElmer Envision instrument utilizing chemiluminescent signal detection.
Compound activity was analyzed using CBIS data analysis suite (ChemInnovation, CA).
Percentage activity was calculated using the following formula: % Activity=[…]×(1−(mean RLU of test sample−mean RLU of Max control)/(mean RLU of vehicle control−mean RLU of Max control))
The biological activity of the exemplified compounds of this invention determined by the assay described above is shown in Table 1. The APJ cAMP EC50 potency ranges are as follows: A: EC50<1 nM; B: 1≤EC50<100 nM; and C: 100≤EC50<10,000 nM.
For orientation: Changes in cAMP serve as a functional read-out for many G protein-coupled receptors.
What is called EC50 is the concentration that produces a half-maximal response. As for `COc1cccc(-c2nnc(C(=O)NS(=O)(=O)[C@@H](C)c3ccccc3)n2-c2c(OC)cccc2OC)n1` (single isomer, unassigned) [Example 32], the EC50 fell in the range of 1 to 100 nM.

Consider `COc1cccc(-c2nnc(C(=O)NS(=O)(=O)[C@H](C)c3ccccc3)n2-c2c(OC)cccc2OC)n1` (single isomer, unassigned) [Example 33], for which the concentration for a half-maximal effect (EC50) was in the range of 1 to 100 nM.

For the compound `CCOc1cccc(-c2nnc(C(=O)NS(=O)(=O)[C@@H](C)c3ccccc3)n2-c2c(OC)cccc2OC)n1` (single isomer, unassigned) [Example 39], the concentration giving a half-maximal response (EC50) is less than 1 nM.

Regarding `CCOc1cccc(-c2nnc(C(=O)NS(=O)(=O)[C@H](C)c3ccccc3)n2-c2c(OC)cccc2OC)n1` (single isomer, unassigned) [Example 40], the half-maximal effective concentration (EC50) is less than 1 nM.

For the compound `CCOc1cccc(-c2nnc(C(=O)NS(=O)(=O)C[C@@H](C)c3ccccc3)n2-c2c(OC)cccc2OC)n1` (single isomer, unassigned) [Example 45], the EC50 was less than 1 nM.

For `CCOc1cccc(-c2nnc(C(=O)NS(=O)(=O)C[C@H](C)c3ccccc3)n2-c2c(OC)cccc2OC)n1` (single isomer, unassigned) [Example 46], the EC50 is less than 1 nM.

`CCOc1cccc(-c2nnc(C(=O)NS(=O)(=O)[C@H]3CCc4ccccc4C3)n2-c2c(OC)cccc2OC)n1` (single isomer, unassigned) [Example 47]: the concentration giving a half-maximal response (EC50) is less than 1 nM.

Regarding `CCOc1cccc(-c2nnc(C(=O)NS(=O)(=O)[C@@H]3CCc4ccccc4C3)n2-c2c(OC)cccc2OC)n1` (single isomer, unassigned) [Example 48], the concentration giving a half-maximal response (EC50) is less than 1 nM.

`CCOc1cccc(-c2nnc(C(=O)NS(=O)(=O)c3ccccc3)n2-c2c(OC)cccc2OC)n1` [Example 1, 4-(2,6-dimethoxyphenyl)-5-(6-ethoxypyridin-2-yl)-N-(phenylsulfonyl)-4H-1,2,4-triazole-3-carboxamide]: the EC50 is less than 1 nM.

In the case of `CCOc1cccc(-c2nnc(C(=O)NS(=O)(=O)Cc3ccccc3)n2-c2c(OC)cccc2OC)n1` [Example 2, N-(benzylsulfonyl)-4-(2,6-dimethoxyphenyl)-5-(6-ethoxypyridin-2-yl)-4H-1,2,4-triazole-3-carboxamide], the EC50 is less than 1 nM.

As for `CCOc1cccc(-c2nnc(C(=O)NS(=O)(=O)CCc3ccccc3)n2-c2c(OC)cccc2OC)n1` [Example 3, 4-(2,6-dimethoxyphenyl)-5-(6-ethoxypyridin-2-yl)-N-(phenethylsulfonyl)-4H-1,2,4-triazole-3-carboxamide], the EC50 is less than 1 nM.

Regarding `COc1cccc(OC)c1-n1c(C(=O)NS(=O)(=O)Cc2ccccc2)nnc1-c1ccn(C)n1` [Example 4, N-(benzylsulfonyl)-4-(2,6-dimethoxyphenyl)-5-(1-methyl-1H-pyrazol-3-yl)-4H-1,2,4-triazole-3-carboxamide], the EC50 was 1 to 100 nM.

With `CCn1ccc(-c2nnc(C(=O)NS(=O)(=O)Cc3ccccc3)n2-c2c(OC)cccc2OC)n1` [Example 5, N-(benzylsulfonyl)-4-(2,6-dimethoxyphenyl)-5-(1-ethyl-1H-pyrazol-3-yl)-4H-1,2,4-triazole-3-carboxamide], the EC50 is 1 to 100 nM.

Turning to `COc1nc(-c2nnc(C(=O)NS(=O)(=O)Cc3ccccc3)n2-c2c(OC)cccc2OC)cs1` [Example 6, N-(benzylsulfonyl)-4-(2,6-dimethoxyphenyl)-5-(2-methoxythiazol-4-yl)-4H-1,2,4-triazole-3-carboxamide], the EC50 lay in the range of 1 to 100 nM.

Consider `CCOCc1nnc(C(=O)NS(=O)(=O)Cc2ccccc2)n1-c1c(OC)cccc1OC` [Example 7, N-(benzylsulfonyl)-4-(2,6-dimethoxyphenyl)-5-(ethoxymethyl)-4H-1,2,4-triazole-3-carboxamide], for which the half-maximal effective concentration (EC50) was 100 to 10000 nM.

For the compound `CCOc1cccc(-c2nnc(C(=O)N(C)S(=O)(=O)Cc3ccccc3)n2-c2c(OC)cccc2OC)n1` [Example 8, N-(benzylsulfonyl)-4-(2,6-dimethoxyphenyl)-5-(6-ethoxypyridin-2-yl)-N-methyl-4H-1,2,4-triazole-3-carboxamide], the EC50 lay within 1 to 100 nM.

With `CCOc1cccc(-c2nnc(C(=O)NS(C)(=O)=O)n2-c2c(OC)cccc2OC)n1` [Example 9, 4-(2,6-Dimethoxyphenyl)-5-(6-ethoxypyridin-2-yl)-N-(methylsulfonyl)-4H-1,2,4-triazole-3-carboxamide], the 50% effective concentration (EC50) lay within 1 to 100 nM.

For the compound `COc1ccn(-c2nnc(C(=O)NS(=O)(=O)Cc3ccccc3)n2-c2c(OC)cccc2OC)n1` [Example 10, N-(enzylsulfonyl)-4-(2,6-dimethoxyphenyl)-5-(3-methoxy-1H-pyrazol-1-yl)-4H-1,2,4-triazole-3-carboxamide], the EC50 lay in the range of 100 to 10000 nM.

With `COc1cccc(OC)c1-n1c(C(=O)NS(=O)(=O)Cc2ccccc2)nnc1-c1cc(C2CC2)no1` [Example 11, N-(benzylsulfonyl)-5-(3-cyclopropylisoxazol-5-yl)-4-(2,6-dimethoxyphenyl)-4H-1,2,4-triazole-3-carboxamide], the EC50 lay in the range of 100 to 10000 nM.

On to `COc1cccc(OC)c1-n1c(C(=O)NS(=O)(=O)Cc2ccccc2)nnc1-c1ncc(C)c(OC)n1` [Example 12, N-(benzylsulfonyl)-4-(2,6-dimethoxyphenyl)-5-(4-methoxy-5-methylpyrimidin-2-yl)-4H-1,2,4-triazole-3-carboxamide], for which the half-maximal effective concentration (EC50) lay in the range of 100 to 10000 nM.

As for `COc1cccc(-c2nnc(C(=O)NS(=O)(=O)Cc3ccccc3)n2-c2c(OC)cccc2OC)n1` [Example 13, N-(benzylsulfonyl)-4-(2,6-dimethoxyphenyl)-5-(6-methoxypyridin-2-yl)-4H-1,2,4-triazole-3-carboxamide], the half-maximal effective concentration (EC50) fell in the range of 1 to 100 nM.

As to `COc1cccc(OC)c1-n1c(C(=O)NS(=O)(=O)Cc2ccccc2)nnc1-c1cccc(C)n1` [Example 14, N-(benzylsulfonyl)-4-(2,6-dimethoxyphenyl)-5-(6-methylpyridin-2-yl)-4H-1,2,4-triazole-3-carboxamide], the EC50 was 1 to 100 nM.

For the compound `COc1cccc(OC)c1-n1c(C(=O)NS(=O)(=O)Cc2ccccc2)nnc1-c1ccc(C)cn1` [Example 15, N-(benzylsulfonyl)-4-(2,6-dimethoxyphenyl)-5-(5-methylpyridin-2-yl)-4H-1,2,4-triazole-3-carboxamide], the concentration giving a half-maximal response (EC50) fell in the range of 1 to 100 nM.

Consider `COc1cccc(OC)c1-n1c(C(=O)NS(=O)(=O)Cc2ccccc2)nnc1-c1ccc(C)o1` [Example 16, N-(benzylsulfonyl)-4-(2,6-dimethoxyphenyl)-5-(5-methylfuran-2-yl)-4H-1,2,4-triazole-3-carboxamide], for which the 50% effective concentration (EC50) was 1 to 100 nM.

On to `COc1cccc(OC)c1-n1c(C(=O)NS(=O)(=O)Cc2ncccn2)nnc1-c1ccc(C)o1` [Example 17, 4-(2,6-Dimethoxyphenyl)-5-(5-methylfuran-2-yl)-N-((pyrimidin-2-ylmethyl)sulfonyl)-4H-1,2,4-triazole-3-carboxamide], for which the concentration for a half-maximal effect (EC50) is less than 1 nM.

Consider `COc1cccc(OC)c1-n1c(C(=O)NS(=O)(=O)Cc2ccccc2)nnc1-c1cccc(OC2CCC2)n1` [Example 18, N-(benzylsulfonyl)-5-(6-cyclobutoxypyridin-2-yl)-4-(2,6-dimethoxyphenyl)-4H-1,2,4-triazole-3-carboxamide], for which the EC50 was in the range of 1 to 100 nM.

With `COc1cccc(OC)c1-n1c(C(=O)NS(=O)(=O)Cc2ccccc2)nnc1-c1cccc(OC2CC2)n1` [Example 19, N-(benzylsulfonyl)-5-(6-cyclopropoxypyridin-2-yl)-4-(2,6-dimethoxyphenyl)-4H-1,2,4-triazole-3-carboxamide], the half-maximal effective concentration (EC50) was less than 1 nM.

As to `COc1cccc(OC)c1-n1c(C(=O)NS(=O)(=O)Cc2ncccn2)nnc1-c1cccc(OC2CC2)n1` [Example 20, 5-(6-Cyclopropoxypyridin-2-yl)-4-(2,6-dimethoxyphenyl)-N-((pyrimidin-2-ylmethyl)sulfonyl)-4H-1,2,4-triazole-3-carboxamide], the EC50 was less than 1 nM.
